Data taken from US20250057845A1, “COMBINATION OF A TASK1/3 CHANNEL BLOCKER WITH A P2X3 RECEPTOR ANTAGONIST FOR THE TREATMENT OF SLEEP APNEA” (BAYER AKTIENGESELLSCHAFT, priority 2020, published 2025).

Experiments:
[1] = test system: upper airway collapsibility in anaesthetized, spontaneously breathing pigs; assay: pig model of obstructive sleep apnea (OSA): upper airway collapsibility under negative pressure; type: in vivo, German Landrace pigs
Excerpt: The therapeutic potential of the combination of a TASK1/3 channel blocker with a P2X3 receptor antagonist according to the present invention in sleep apnea can be assessed preclinically in a pig model of obstructive sleep apnea (OSA).
Using negative pressure, it is possible to induce collapse and thus obstruction of the upper respiratory tract in anaesthetized, spontaneously breathing pigs (Wirth K. J. et al., Sleep 36(5) (2013) pp. 699-708).
German Landrace pigs are used for the model. The pigs are anaesthetized and tracheotomized. Two tracheal cannulas are inserted into the trachea, one into the rostral part and the other into the caudal part of the trachea. Using a connection piece, the rostral cannula is connected to a tube to the negative pressure device and to the distal tracheal cannula. The distal tracheal cannula is additionally connected to a tube with an open end to atmosphere via a connection piece that served for free tracheal breathing, circumventing the upper airway. By appropriate opening and clamping of those tubes breathing can be switched from nasal breathing to breathing through the caudal tracheal cannula, circumventing the upper airway, and the (isolated) upper airway can be connected to the negative pressure device, causing airflow in the inspiratory direction.
At certain points in time, the collapsibility of the upper respiratory tract is tested by having the pig breathe via the caudal cannula and applying negative pressures of −50, −100 and −150 cm water head (cm H2O) to the upper respiratory tract. This causes the upper respiratory tract to collapse, which manifests itself in an interruption of the airflow and a pressure drop in the tube system. This test is conducted prior to the administration of the test substance and at certain intervals after the administration of the test substance. An appropriately effective test substance can prevent this collapse of the respiratory tract in the inspiratory phase.

[2] = free plasma concentrations of Gefapixant in the OSA pig model (FIG. 4); type: in vivo, German Landrace pigs; details: pigs, minimal effective dose of Gefapixant (iv bolus 0.3 mg/kg then infusion 0.1 mg/kg/h)
[3] = 0.3 μg intranasal given at 0 min, time 0 min
[4] = 0.3 μg intranasal given at 0 min, time 10 min
[5] = 0.3 μg intranasal given at 0 min, time 30 min
[6] = 0.3 μg intranasal given at 0 min, time 60 min
[7] = 0.3 μg intranasal given at 0 min, time 90 min
[8] = Gefapixant iv bolus 0.3 mg/kg then iv infusion 0.1 mg/kg/h for four hours, given at 0 min, time 0 min
[9] = Gefapixant iv bolus 0.3 mg/kg then iv infusion 0.1 mg/kg/h for four hours, given at 0 min, time 10 min
[10] = Gefapixant iv bolus 0.3 mg/kg then iv infusion 0.1 mg/kg/h for four hours, given at 0 min, time 30 min
[11] = Gefapixant iv bolus 0.3 mg/kg then iv infusion 0.1 mg/kg/h for four hours, given at 0 min, time 60 min
[12] = Gefapixant iv bolus 0.3 mg/kg then iv infusion 0.1 mg/kg/h for four hours, given at 0 min, time 120 min
[13] = Gefapixant iv bolus 0.3 mg/kg then iv infusion 0.1 mg/kg/h for four hours, given at 0 min, time 180 min
[14] = Gefapixant iv bolus 0.3 mg/kg then iv infusion 0.1 mg/kg/h for four hours, given at 0 min, time 240 min
[15] = Gefapixant iv bolus 0.3 mg/kg then iv infusion 0.1 mg/kg/h for four hours, given at 0 min, time 300 min

Structure (SMILES): COc1ccc(Cl)c(C(=O)N2C3CCC2CN(Cc2c(-c4ccc(C(C)C)cc4)nc4ncccn24)C3)n1 [(3-chloro-6-methoxypyridin-2-yl)(3-{[2-(4-isopropylphenyl)imidazo[1,2-a]pyrimidin-3-yl]methyl}-3,8-diazabicyclo[3.2.1]oct-8-yl)methanone]
- effectiveness of the dose on upper airway collapsibility ([1]; 0.3 μg intranasal): non effective dose
- Percent pigs without collaps −50 cm H2O, % [1, 3]: 0%
- Percent pigs without collaps −50 cm H2O, % [1, 4]: 33%
- Percent pigs without collaps −50 cm H2O, % [1, 5]: 0%
- Percent pigs without collaps −50 cm H2O, % [1, 6]: 0%
- Percent pigs without collaps −50 cm H2O, % [1, 7]: 0%
- Percent pigs without collaps −100 cm H2O, % [1, 3]: 0%
- Percent pigs without collaps −100 cm H2O, % [1, 4]: 33%
- Percent pigs without collaps −100 cm H2O, % [1, 5]: 0%
- Percent pigs without collaps −100 cm H2O, % [1, 6]: 0%
- Percent pigs without collaps −100 cm H2O, % [1, 7]: 0%
- Percent pigs without collaps −150 cm H2O, % [1, 3]: 0%
- Percent pigs without collaps −150 cm H2O, % [1, 4]: 0%
- Percent pigs without collaps −150 cm H2O, % [1, 5]: 0%
- Percent pigs without collaps −150 cm H2O, % [1, 6]: 0%
- Percent pigs without collaps −150 cm H2O, % [1, 7]: 0%

Structure (SMILES): COc1cc(C(C)C)c(Oc2cnc(N)nc2N)cc1S(N)(=O)=O [Gefapixant]
- Percent pigs without collaps −50 cm H2O, % [1, 8]: 0%
- Percent pigs without collaps −50 cm H2O, % [1, 9]: 0%
- Percent pigs without collaps −50 cm H2O, % [1, 10]: 100%
- Percent pigs without collaps −50 cm H2O, % [1, 11]: 100%
- Percent pigs without collaps −50 cm H2O, % [1, 12]: 0%
- Percent pigs without collaps −50 cm H2O, % [1, 13]: 0%
- Percent pigs without collaps −50 cm H2O, % [1, 14]: 0%
- Percent pigs without collaps −50 cm H2O, % [1, 15]: 0%
- Percent pigs without collaps −100 cm H2O, % [1, 8]: 0%
- Percent pigs without collaps −100 cm H2O, % [1, 9]: 0%
- Percent pigs without collaps −100 cm H2O, % [1, 10]: 100%
- Percent pigs without collaps −100 cm H2O, % [1, 11]: 0%
- Percent pigs without collaps −100 cm H2O, % [1, 12]: 0%
- Percent pigs without collaps −100 cm H2O, % [1, 13]: 0%
- Percent pigs without collaps −100 cm H2O, % [1, 14]: 0%
- Percent pigs without collaps −100 cm H2O, % [1, 15]: 0%
- Percent pigs without collaps −150 cm H2O, % [1, 8]: 0%
- Percent pigs without collaps −150 cm H2O, % [1, 9]: 0%
- Percent pigs without collaps −150 cm H2O, % [1, 10]: 100%
- Percent pigs without collaps −150 cm H2O, % [1, 11]: 0%
- Percent pigs without collaps −150 cm H2O, % [1, 12]: 0%
- Percent pigs without collaps −150 cm H2O, % [1, 13]: 0%
- Percent pigs without collaps −150 cm H2O, % [1, 14]: 0%
- Percent pigs without collaps −150 cm H2O, % [1, 15]: 0%
- effectiveness of the dose on upper airway collapsibility ([1]; iv bolus 0.3 mg/kg then iv infusion 0.1 mg/kg/h for four hours): minimal effective dose
- only time point after intravenous application at which upper airway collapsibility was inhibited at all three negative pressures in all pigs ([1]; iv bolus 0.3 mg/kg then iv infusion 0.1 mg/kg/h for four hours, −50, −100 and −150 cm H2O): 30 min
- free plasma concentrations [2]: about 100 nM
